Experimental data published in patent US20040119048A1, “Process of making aqueous perborate bleach composition” (Unilever Home & Personal Care USA, Divison of Conopco, Inc., priority 2002, published 2004).

Test: Iterative determination of perborate solubility in water and polyol/water (visual appearance, pH)
Assay type: physicochemical
Procedure: An iterative process was used to determine the extent of perborate solubilty in water and polyol/water. 1.5 g of Na perborate monohydrate was added either to 100 g of water (Table 1A) or to 90 g water and 10 g sorbitol (70% active) (Table 1B). The mixture was stirred until all of sodium perborate monohydrate was dissolved. A 0.5 g aliquot of sodium perborate monohydrate was then added to the solution while stirring and visually monitored to see if all the added sodium perborate monohydrate dissolves. If the aliquot dissolved, another 0.5 g of sodium perborate monohydrate would be added. This procedure was continued until the added perborate no longer appeared to dissolve.

## O.O=BO[O-].[Na+] [Sodium Perborate monohydrate, sodium perborate monohydrate]
90 g water + 10 g sorbitol (70%)
  solubility in water in the presence of polyol: up to 8.5 g
Aqueous environment, with polyol vs without
  increase of perborate solubility by polyol: about 400%
